Measured values reported in paper PMC8596125, “Self‐Stabilized Supramolecular Assemblies Constructed from PEGylated Dendritic Peptide Conjugate for Augmenting Tumor Retention and Therapy” (Advanced Science, 2021).

Legend:
4T1 breast tumors [1] = experiment: In vivo / ex vivo fluorescence imaging and tumor retention; design: species or system mouse; details: BALB/c nude mice with 4T1 tumors, i.v. 5 mg Ppa kg-1, in vivo fluorescence imaging up to 14 d, n = 3
From the text: Where AS is the absorbance of the sample, A100 is the absorbance of lysed erythrocytes in H2O (a positive control), and A0 is the absorbance of 0% hemolysis in PBS (a negative control).
1.3.12 Skin photosensitization
The backs of healthy BALB/c mice were depilated 3 days before treatment to ensure that all injures had recovered. The shaved mice were randomly divided into 4 groups: (a) SSAs + laser irradiation; (b) Ppa + laser irradiation; (c) laser irradiation; (d) control (without any treatment). The dose of Ppa was 5 mg Ppa kg-1. Right after administration, the anesthetized mice were irradiated by a 660 nm laser (0.26 W cm-2, […], 108 J cm-2). […] The degree of skin response was examined and scored according to Table S5, and Paraffin sections of the skin were stained with hematoxylin and eosin (H&E) according to the manufacturer's instructions.[3] […]
Plasma was diluted to 50-fold with DMSO for fluorescent measurements using a BioTek plate reader. The pharmacokinetic parameters were calculated using a two-compartment model by WinNonlin 5.2 software.
1.3.14 In vivo fluorescence imaging and biodistribution […]
Fluorescence signals were detected at 1 h, 3 h, 12h, 24 h, 2 d, 3 d, 5 d, 7 d, 9 d, 11 d […]
and 14 d post-intravenous injection by a small-animal in vivo fluorescence imaging system (CRi Maestro EX, USA) with excitation at […]. […]

4T1 breast tumors [2] = experiment: In vivo photodynamic therapy, 4T1 breast tumor model; design: species or system mouse; details: n = 6; for TGI: BALB/c mice with 4T1 tumors
Experimental: and 14 d post-intravenous injection by a small-animal in vivo fluorescence imaging system (CRi Maestro EX, USA) with excitation at 450 nm and emission at 560 nm.
The mean fluorescence intensity (MFI) was quantitated by CRi Maestro EX 3.0.
Ex vivo fluorescent imaging
After BALB/c mice developed established tumors (100 mm3), Ppa and SSAs (5 mg Ppa kg-1) were intravenously injected into mice via their tail veins (n = 3). The mice were sacrificed at different time points (1 d, 3 d, 5 d, 7 d, 10 d and 14 d) after post-injection, and tumors were excised for ex vivo imaging and semi-quantitative distribution analysis by an in vivo imaging system (IVIS Spectrum In Vivo Imaging System, USA). These tumors were excised for preparing frozen sections. The fixed tumor samples were sectioned into 5 μm-thick slides and incubated with Alex Fluor 594 labeled anti-CD31 antibody (Abcam, UK) and DAPI (Dojindo, Japan). A confocal microscope was used to observe accumulation and retention of Ppa in the […]
1.3.15 In vivo photodynamic therapy
In the 4T1 breast tumor model, when the tumor volume reached about 50 mm3, the mice were divided into 5 groups (n = 6) and injected intravenously with saline, Ppa-1(one treatment), Ppa-2 (two treatments), SSAs-1 (one treatment) and SSAs-2 (two treatments) every four days. The dose per injection was 5 mg Ppa kg-1. After 3 d post-injection, mice were anesthetized with 2% (v/v) isofluorane and tumors were irradiated for 8 min (660 nm, 200 mW cm-2); The mice were monitored daily to identify any signs of toxicity, while the tumor volumetric size and the body weight were measured every 2 d. Tumor volumes were calculated using the following formula: tumor volume = length × width2 × 0.5. […]
For studies with an A549 human non-small cell lung tumor model, nude mice were randomly allocated into three groups (n= 5): saline (control), Ppa, and SSAs when the average tumor volume reached 50 mm3. […] The tumor growth was monitored and the tumor size was measured every 3 d. […]
Untreated cells were set as a control. […] Relative abundance of transcripts was calculated with kallisto. […]

Persistence of the fluorescence signal in tumors (4T1 breast tumors [1]): disappear on day 3 after injection
Structure (SMILES): C=Cc1c(C)c2cc3nc(c4c5[nH]c(cc6nc(cc1[nH]2)C(C)=C6CC)c(C)c5C(=O)C4)[C@@H](CCC(=O)O)[C@@H]3C [Ppa, pyropheophorbide a]
TGI (4T1 breast tumors [2]; one treatment (group -1), i.v. 5 mg Ppa kg-1, 660 nm 200 mW cm-2 8 min 3 d post-injection): 11.6% | TGI (4T1 breast tumors [2]; two treatments (group -2), i.v. 5 mg Ppa kg-1 per injection, 660 nm 200 mW cm-2 8 min 3 d post-injection): 17.1% | Antitumor effect on tumor growth (4T1 breast tumors [2]; once and twice treatments, 4T1 model): no significant antitumor inhibitory effect
